# Experimental data from patent publication US12343326B2, “Psychoactive medicines and their use for treating psychiatric and neurological conditions and disorders” (Transcend Therapeutics, Inc., priority 2021, dated 2025).
# Read-outs that look alike come from different tables or passages of the source.
# Assays:
# Test in all cases: β-arrestin based GPCR screen (PathHunter / GPCRmax), agonist mode
# Format in all cases: cell-based
# Set-up in all cases: host or cells: PathHunter cell lines
# 168 GPCRs [1] = molecular target: 168 GPCRs (Homo sapiens, UniProt P30559); conditions: OXTR
# Procedure: (§1) For agonist determination, cells were incubated with sample to induce response. […] Vehicle concentration was 1%.
# 168 GPCRs [2] = molecular target: 168 GPCRs (Homo sapiens, UniProt P21554)
# Procedure: as §1
# 168 GPCRs [3] = molecular target: 168 GPCRs (Homo sapiens, UniProt P48546); conditions: GIPR
# Procedure: as §1
# 168 GPCRs [4] = molecular target: 168 GPCRs (Homo sapiens, UniProt P22888); conditions: LHCGR
# Sequence of 168 GPCRs (Homo sapiens, UniProt P22888) (P22888 27-699): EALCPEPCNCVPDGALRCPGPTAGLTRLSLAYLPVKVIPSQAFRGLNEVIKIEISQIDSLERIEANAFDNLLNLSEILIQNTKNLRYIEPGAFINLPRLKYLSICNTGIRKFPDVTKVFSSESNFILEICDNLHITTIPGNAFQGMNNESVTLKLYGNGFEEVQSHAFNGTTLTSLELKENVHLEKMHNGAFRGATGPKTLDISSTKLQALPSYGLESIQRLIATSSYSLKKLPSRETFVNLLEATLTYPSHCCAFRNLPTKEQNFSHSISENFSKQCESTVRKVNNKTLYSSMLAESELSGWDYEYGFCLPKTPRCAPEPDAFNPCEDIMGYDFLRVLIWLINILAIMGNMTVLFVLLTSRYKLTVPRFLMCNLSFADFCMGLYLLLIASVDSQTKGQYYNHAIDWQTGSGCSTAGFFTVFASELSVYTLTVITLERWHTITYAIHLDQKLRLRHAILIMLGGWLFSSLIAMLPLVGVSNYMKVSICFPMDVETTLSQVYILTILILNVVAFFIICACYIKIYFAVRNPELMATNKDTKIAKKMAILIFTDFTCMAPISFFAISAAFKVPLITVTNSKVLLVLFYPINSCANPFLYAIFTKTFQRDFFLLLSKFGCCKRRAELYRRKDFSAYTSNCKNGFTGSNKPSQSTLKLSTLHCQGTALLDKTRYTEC
# Procedure: as §1
# 168 GPCRs [5] = molecular target: 168 GPCRs (Homo sapiens, UniProt P32249)
# Procedure: as §1
# 168 GPCRs [6] = molecular target: 168 GPCRs (Homo sapiens, UniProt Q8TDS4); conditions: GPR109A
# Procedure: as §1
# 168 GPCRs [7] = molecular target: 168 GPCRs (Homo sapiens, UniProt P14416); conditions: DRD2L
# Sequence of 168 GPCRs (Homo sapiens, UniProt P14416) (P14416 whole entry): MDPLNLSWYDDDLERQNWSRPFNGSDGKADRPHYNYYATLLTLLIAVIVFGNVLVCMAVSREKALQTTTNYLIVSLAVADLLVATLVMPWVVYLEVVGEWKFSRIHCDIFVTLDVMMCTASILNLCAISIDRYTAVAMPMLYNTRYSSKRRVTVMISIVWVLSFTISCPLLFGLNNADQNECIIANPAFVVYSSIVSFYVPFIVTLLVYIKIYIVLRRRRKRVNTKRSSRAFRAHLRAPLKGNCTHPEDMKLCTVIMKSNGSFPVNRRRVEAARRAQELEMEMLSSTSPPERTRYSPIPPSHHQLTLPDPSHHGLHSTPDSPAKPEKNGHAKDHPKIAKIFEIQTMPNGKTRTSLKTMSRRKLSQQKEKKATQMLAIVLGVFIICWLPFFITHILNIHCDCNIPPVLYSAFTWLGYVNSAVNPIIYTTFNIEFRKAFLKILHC
# Procedure: as §1
# 168 GPCRs [8] = molecular target: 168 GPCRs (Homo sapiens, UniProt P41968); conditions: MC3R
# Procedure: as §1
# 168 GPCRs [9] = molecular target: 168 GPCRs (Homo sapiens, UniProt P35367)
# Procedure: as §1
# 168 GPCRs [10] = molecular target: 168 GPCRs (Homo sapiens, UniProt O95838); conditions: GLP2R
# Sequence of 168 GPCRs (Homo sapiens, UniProt O95838) (O95838 whole entry): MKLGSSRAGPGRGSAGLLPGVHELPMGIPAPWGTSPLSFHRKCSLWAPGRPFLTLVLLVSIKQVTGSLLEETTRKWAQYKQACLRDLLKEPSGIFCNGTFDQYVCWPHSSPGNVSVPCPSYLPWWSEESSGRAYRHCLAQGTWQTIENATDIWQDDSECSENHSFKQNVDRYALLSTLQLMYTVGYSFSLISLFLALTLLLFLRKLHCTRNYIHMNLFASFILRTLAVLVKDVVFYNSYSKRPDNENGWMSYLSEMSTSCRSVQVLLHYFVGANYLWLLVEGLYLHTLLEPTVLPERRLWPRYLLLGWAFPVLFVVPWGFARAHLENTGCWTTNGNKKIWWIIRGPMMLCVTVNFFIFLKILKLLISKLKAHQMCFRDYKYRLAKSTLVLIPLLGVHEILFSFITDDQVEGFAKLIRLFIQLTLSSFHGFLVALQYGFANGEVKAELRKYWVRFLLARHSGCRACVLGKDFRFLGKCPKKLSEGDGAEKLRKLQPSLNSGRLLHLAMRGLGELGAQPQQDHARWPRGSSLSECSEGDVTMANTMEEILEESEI
# Procedure: as §1
# 168 GPCRs [11] = molecular target: 168 GPCRs (Homo sapiens, UniProt P55085)
# Sequence of 168 GPCRs (Homo sapiens, UniProt P55085) (P55085 26-397): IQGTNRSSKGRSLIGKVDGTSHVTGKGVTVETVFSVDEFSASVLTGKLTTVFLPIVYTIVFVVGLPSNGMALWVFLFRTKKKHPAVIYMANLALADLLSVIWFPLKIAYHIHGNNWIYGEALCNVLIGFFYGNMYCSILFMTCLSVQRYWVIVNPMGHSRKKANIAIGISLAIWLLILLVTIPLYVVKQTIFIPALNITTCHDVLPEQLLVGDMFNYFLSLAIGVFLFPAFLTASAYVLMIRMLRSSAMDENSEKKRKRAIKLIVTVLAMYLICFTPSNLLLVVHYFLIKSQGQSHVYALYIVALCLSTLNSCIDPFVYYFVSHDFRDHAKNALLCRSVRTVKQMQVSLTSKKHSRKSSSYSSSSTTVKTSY
# Procedure: as §1
# 168 GPCRs [12] = molecular target: 168 GPCRs (Homo sapiens, UniProt P28222); conditions: HTR1B
# Sequence of 168 GPCRs (Homo sapiens, UniProt P28222) (P28222 whole entry): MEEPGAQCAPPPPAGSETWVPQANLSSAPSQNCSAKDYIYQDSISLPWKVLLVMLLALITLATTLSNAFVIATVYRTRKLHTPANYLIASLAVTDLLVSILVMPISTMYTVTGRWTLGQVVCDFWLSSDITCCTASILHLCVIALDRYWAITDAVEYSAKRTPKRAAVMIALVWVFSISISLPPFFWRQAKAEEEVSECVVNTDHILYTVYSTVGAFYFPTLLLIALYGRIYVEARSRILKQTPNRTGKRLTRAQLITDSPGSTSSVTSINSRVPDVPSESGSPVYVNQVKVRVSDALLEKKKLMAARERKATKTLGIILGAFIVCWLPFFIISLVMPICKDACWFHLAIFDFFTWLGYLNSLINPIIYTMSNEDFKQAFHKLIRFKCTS
# Procedure: as §1
# 168 GPCRs [13] = molecular target: 168 GPCRs (Homo sapiens, UniProt Q969V1)
# Sequence of 168 GPCRs (Homo sapiens, UniProt Q969V1) (Q969V1 whole entry): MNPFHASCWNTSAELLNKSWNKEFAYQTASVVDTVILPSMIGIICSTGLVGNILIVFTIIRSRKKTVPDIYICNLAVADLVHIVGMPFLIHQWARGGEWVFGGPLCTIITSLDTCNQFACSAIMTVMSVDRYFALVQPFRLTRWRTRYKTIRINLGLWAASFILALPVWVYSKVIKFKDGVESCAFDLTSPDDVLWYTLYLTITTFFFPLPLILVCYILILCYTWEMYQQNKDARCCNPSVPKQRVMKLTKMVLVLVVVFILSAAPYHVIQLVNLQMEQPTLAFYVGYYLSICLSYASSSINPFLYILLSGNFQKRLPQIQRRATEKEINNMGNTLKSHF
# Procedure: as §1
# 168 GPCRs [14] = molecular target: 168 GPCRs (Homo sapiens, UniProt Q9HC97)
# Sequence of 168 GPCRs (Homo sapiens, UniProt Q9HC97) (Q9HC97 whole entry): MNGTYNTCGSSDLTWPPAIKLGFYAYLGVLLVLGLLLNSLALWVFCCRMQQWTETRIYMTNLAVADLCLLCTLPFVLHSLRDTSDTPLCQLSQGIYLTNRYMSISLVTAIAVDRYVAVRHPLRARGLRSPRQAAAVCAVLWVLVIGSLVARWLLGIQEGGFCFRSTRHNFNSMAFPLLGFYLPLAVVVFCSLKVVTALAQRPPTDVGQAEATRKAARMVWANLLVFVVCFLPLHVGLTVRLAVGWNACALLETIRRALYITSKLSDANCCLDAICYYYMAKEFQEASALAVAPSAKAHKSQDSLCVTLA
# Procedure: as §1
# 168 GPCRs [15] = molecular target: 168 GPCRs (Homo sapiens, UniProt P20309); conditions: CHRM3, Agonist
# Sequence of 168 GPCRs (Homo sapiens, UniProt P20309) (P20309 whole entry): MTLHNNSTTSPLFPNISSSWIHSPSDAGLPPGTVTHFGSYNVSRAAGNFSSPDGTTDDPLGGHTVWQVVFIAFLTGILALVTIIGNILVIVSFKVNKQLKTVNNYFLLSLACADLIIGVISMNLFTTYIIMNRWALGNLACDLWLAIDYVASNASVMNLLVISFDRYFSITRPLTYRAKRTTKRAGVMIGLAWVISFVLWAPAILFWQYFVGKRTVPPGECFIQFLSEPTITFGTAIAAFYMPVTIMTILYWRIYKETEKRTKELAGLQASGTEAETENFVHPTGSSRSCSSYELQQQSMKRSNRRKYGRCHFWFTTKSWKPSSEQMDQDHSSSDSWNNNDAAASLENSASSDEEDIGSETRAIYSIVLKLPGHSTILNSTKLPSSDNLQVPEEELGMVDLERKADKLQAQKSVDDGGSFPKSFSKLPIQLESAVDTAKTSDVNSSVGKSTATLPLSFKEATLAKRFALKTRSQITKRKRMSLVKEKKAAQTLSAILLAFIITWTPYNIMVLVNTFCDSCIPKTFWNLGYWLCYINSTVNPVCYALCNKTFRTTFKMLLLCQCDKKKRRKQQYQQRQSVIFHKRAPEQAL
# Procedure: as §1
# 168 GPCRs [16] = molecular target: 168 GPCRs (Homo sapiens, UniProt P18089); conditions: ADRA2B, Agonist
# Sequence of 168 GPCRs (Homo sapiens, UniProt P18089) (P18089 whole entry): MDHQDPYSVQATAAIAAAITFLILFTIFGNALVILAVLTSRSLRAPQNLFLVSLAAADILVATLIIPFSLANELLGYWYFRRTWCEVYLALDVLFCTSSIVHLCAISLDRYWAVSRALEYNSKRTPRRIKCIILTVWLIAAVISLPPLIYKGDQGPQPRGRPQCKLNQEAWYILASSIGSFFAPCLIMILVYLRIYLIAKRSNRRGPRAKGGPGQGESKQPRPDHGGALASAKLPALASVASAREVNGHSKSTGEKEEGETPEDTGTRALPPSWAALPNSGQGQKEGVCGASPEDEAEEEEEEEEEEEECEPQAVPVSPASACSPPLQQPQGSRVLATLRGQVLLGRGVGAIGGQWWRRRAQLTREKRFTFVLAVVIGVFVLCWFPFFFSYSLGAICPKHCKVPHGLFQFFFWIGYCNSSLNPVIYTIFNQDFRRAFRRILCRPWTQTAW
# Procedure: as §1
# 168 GPCRs [17] = molecular target: 168 GPCRs (Homo sapiens, UniProt Q9H244)
# Procedure: as §1
# 168 GPCRs [18] = molecular target: 168 GPCRs (Homo sapiens, UniProt P41231)
# Procedure: as §1
# 168 GPCRs [19] = molecular target: 168 GPCRs (Homo sapiens, UniProt Q92847); conditions: GHSR
# Procedure: as §1
# 168 GPCRs [20] = molecular target: 168 GPCRs (Homo sapiens, UniProt P43119); conditions: PTGIR
# Sequence of 168 GPCRs (Homo sapiens, UniProt P43119) (P43119 whole entry): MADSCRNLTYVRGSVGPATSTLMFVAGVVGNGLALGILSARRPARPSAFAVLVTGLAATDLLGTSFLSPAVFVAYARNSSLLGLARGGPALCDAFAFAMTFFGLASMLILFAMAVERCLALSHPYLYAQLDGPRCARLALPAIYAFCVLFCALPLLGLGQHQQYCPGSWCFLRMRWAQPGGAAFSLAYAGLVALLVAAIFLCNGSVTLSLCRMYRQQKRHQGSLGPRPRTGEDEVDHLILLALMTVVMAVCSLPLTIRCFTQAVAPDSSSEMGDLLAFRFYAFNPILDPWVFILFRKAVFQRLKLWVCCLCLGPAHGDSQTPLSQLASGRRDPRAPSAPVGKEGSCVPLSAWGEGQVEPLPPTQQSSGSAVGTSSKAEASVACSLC
# Procedure: as §1
# 168 GPCRs [21] = molecular target: 168 GPCRs (Homo sapiens, UniProt P30988); conditions: Agonist
# Sequence of 168 GPCRs (Homo sapiens, UniProt P30988) (P30988 25-474): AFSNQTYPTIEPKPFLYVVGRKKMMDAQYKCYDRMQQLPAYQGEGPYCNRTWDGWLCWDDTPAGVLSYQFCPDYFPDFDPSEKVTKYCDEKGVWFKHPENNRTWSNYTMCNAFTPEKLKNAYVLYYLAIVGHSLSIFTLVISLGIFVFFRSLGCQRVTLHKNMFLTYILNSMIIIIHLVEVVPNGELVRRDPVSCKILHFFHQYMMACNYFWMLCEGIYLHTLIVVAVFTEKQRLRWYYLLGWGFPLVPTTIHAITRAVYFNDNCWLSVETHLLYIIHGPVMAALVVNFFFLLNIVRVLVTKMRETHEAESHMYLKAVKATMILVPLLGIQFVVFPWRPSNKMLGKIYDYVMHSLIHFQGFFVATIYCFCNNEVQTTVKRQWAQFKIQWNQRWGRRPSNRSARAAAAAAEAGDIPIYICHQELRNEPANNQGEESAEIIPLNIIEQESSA
# Procedure: as §1
# 168 GPCRs [22] = molecular target: 168 GPCRs (Homo sapiens, UniProt P30556); conditions: AGTR1, Agonist
# Procedure: as §1
# [23] = CALCR-RAMP2, read-out: % Activity
structure (smiles),measurement,setting,value
"CNC(C)C(=O)c1ccc2c(c1)OCO2 (stereo not drawn) [methylone, 3,4-methylenedioxy-N-methylcathinone]",activity at 10 µM,"168 GPCRs [1]; Agonist mode, 10 uM",-0.5%
same,activity at 1 µM,"168 GPCRs [1]; Agonist, 1 uM",-0.6%
same,activity at 10 µM,"168 GPCRs [2]; CNR1, Agonist mode, 10 uM",-2.7%
same,activity at 1 µM,"168 GPCRs [2]; CNR1, Agonist, 1 uM",-0.4%
same,activity at 10 µM,"168 GPCRs [3]; Agonist mode, 10 uM",-5.8%
same,activity at 1 µM,"168 GPCRs [3]; Agonist, 1 uM",-2.9%
same,activity at 10 µM,"168 GPCRs [4]; Agonist mode, 10 uM",0.4%
same,activity at 1 µM,"168 GPCRs [4]; Agonist, 1 uM",0.4%
same,activity at 10 µM,"168 GPCRs [5]; EBI2, Agonist mode, 10 uM",0.1%
same,activity at 1 µM,"168 GPCRs [5]; EBI2, Agonist, 1 uM",0.5%
same,activity at 10 µM,"168 GPCRs [6]; Agonist mode, 10 uM",-4.3%
same,activity at 1 µM,"168 GPCRs [6]; Agonist, 1 uM",-8.7%
same,activity at 10 µM,"168 GPCRs [7]; Agonist mode, 10 uM",0.7%
same,activity at 1 µM,"168 GPCRs [7]; Agonist, 1 uM",0.1%
same,activity at 10 µM,"168 GPCRs [8]; Agonist mode, 10 uM",-1.8%
same,activity at 1 µM,"168 GPCRs [8]; Agonist, 1 uM",-3.2%
same,activity at 10 µM,"168 GPCRs [9]; HRH1, Agonist mode, 10 uM",2.5%
same,activity at 1 µM,"168 GPCRs [9]; HRH1, Agonist, 1 uM",3%
same,activity at 10 µM,"168 GPCRs [10]; Agonist mode, 10 uM",-13%
same,activity at 1 µM,"168 GPCRs [10]; Agonist, 1 uM",-1.5%
same,activity at 10 µM,"168 GPCRs [11]; F2RL1, Agonist mode, 10 uM",3.8%
same,activity at 1 µM,"168 GPCRs [11]; F2RL1, Agonist, 1 uM",-0.6%
same,activity at 10 µM,"168 GPCRs [12]; Agonist mode, 10 uM",6.7%
same,activity at 1 µM,"168 GPCRs [12]; Agonist, 1 uM",3.3%
same,activity at 10 µM,"168 GPCRs [13]; MCHR2, Agonist mode, 10 uM",-0.7%
same,activity at 1 µM,"168 GPCRs [13]; MCHR2, Agonist, 1 uM",-1.5%
same,activity at 10 µM,"168 GPCRs [14]; GPR35, Agonist mode, 10 uM",2.5%
same,activity at 1 µM,"168 GPCRs [14]; GPR35, Agonist, 1 uM",2.2%
same,activity at 1 µM,168 GPCRs [15]; 1 uM,6%
same,activity at 10 µM,168 GPCRs [15]; 10 uM,6%
same,activity at 1 µM,168 GPCRs [16]; 1 uM,-1%
same,activity at 10 µM,168 GPCRs [16]; 10 uM,1.3%
same,activity at 10 µM,"168 GPCRs [17]; P2RY12, Agonist mode, 10 uM",-2.5%
same,activity at 1 µM,"168 GPCRs [17]; P2RY12, Agonist, 1 uM",-1.5%
same,activity at 10 µM,"168 GPCRs [18]; P2RY2, Agonist mode, 10 uM",-2.7%
same,activity at 1 µM,"168 GPCRs [18]; P2RY2, Agonist, 1 uM",-2.1%
same,activity at 10 µM,"168 GPCRs [19]; Agonist mode, 10 uM",-7.2%
same,activity at 1 µM,"168 GPCRs [19]; Agonist, 1 uM",-6.6%
same,activity at 10 µM,"168 GPCRs [20]; Agonist mode, 10 uM",-2.3%
same,activity at 1 µM,"168 GPCRs [20]; Agonist, 1 uM",-4.4%
same,activity at 1 µM,168 GPCRs [21]; [23],0.9%
same,activity at 10 µM,168 GPCRs [21]; [23],1.6%
same,activity at 1 µM,168 GPCRs [21]; CALCR-RAMP3,7.9%
same,activity at 10 µM,168 GPCRs [21]; CALCR-RAMP3,7.1%
same,activity at 1 µM,"168 GPCRs [21]; CALCR, read-out: % Activity",-0.3%
same,activity at 10 µM,"168 GPCRs [21]; CALCR, read-out: % Activity",0.2%
same,activity at 1 µM,168 GPCRs [22]; 1 uM,-2.8%
same,activity at 10 µM,168 GPCRs [22]; 10 uM,-1%
